In patent US20030149000A1, “Method for the treatment of disorders associated with apoptosis using N-heterocyclic glyoxylamide compounds” (Shionogi & Co., Ltd., priority 1998, published 2003):

Columns and labels:
[1] = test system: hPLA2-II-induced neuronal cell death; experiment: MTT reduction assay of neuronal survival after hPLA2-II treatment; type: cell-based, Sprague-Dawley rat
Experimental: (§1) According to a method disclosed in Neurosci. Lett. 203, 175-178 Ueda K. et al, Neuronal cultures were prepared from cerebral cortex of 19-day-old Sprague-Dawley rat embryos. The cerebral cortices were dissociated in isotonic buffer (137 mM NaCl, 5.4 mM KCl, 0.17 mM Na2HPO4, 0.22 mM KH2PO4, 5.5 mM Glucose, 59 mM Sucrose; volume of each buffer is 25 ml) with 4 mg/ml trypsin and 0.4 mg/ml deoxyribonuclease I. Cells were plated at a density of 2.5×10^5 cells/cm^2 on poly-L-lysine coated dishes in conditioning medium, Leibovitz's L-15 medium supplemented with 5% fetal calf serum and 5% horse serum. Culture medium was exchanged for conditioning medium containing 0.1 mM arabinosylcytosine C on day 1 after plating. Cultured neurons were used for the experiments on day 2 of culture.
For assessment of neurotoxicity of hPLA2-II according to a method disclosed in Neurosci. […] Absorbance at 570 nm were measured with a microplate reader.
[…] MTT reducing activity was determined 48 hr after hPLA2-II-treatment.
At the indicated time after the treatment with hPLA2-II (1 μM), the compound prepared in Example 2 (final concentration=10 μM) was added to the culture medium. Data are expressed as mean±SEM values (n=4). *P<0.05, **P<0.01, compared with vehicle-treated conditions by ANOVA followed by Dunnett's test. […]

[2] = rats after transient middle cerebral artery occlusion; cited from earlier work
[3] = test system: cortical neurons; experiment: Ultrastructural changes in cortical neurons after hPLA2-II treatment (electron microscope); type: cell-based, Sprague-Dawley rat; details: treated for 48 h
Experimental: as §1
Cells were treated with hPLA2-II for 48 h, and fixed in situ in 1-5% (especially 2.5%) glutaraldehyde in PBS for 2 h at 4° C. and post-fixed in 0.5-2% (especially 1% osmium tetraoxide). To increase contrast, cells were double-fixed in saturated thiocarbohydrazide-osmium. Afterwards, samples were dehydrated using a graded series of ethanol from 50-100%. Tissue culture dishes were embedded in Araldite or Epoxy resin (especially Epon 812), cured in vacuo for 48 h at 60-70° C. and sectioned. […]

For `CCc1c(C(=O)C(N)=O)c2c(OCC(=O)O)cccc2n1Cc1ccccc1` [Example 1, [[3-(2-Amino-1,2-dioxoethyl)-2-ethyl-1-(phenylmethyl)-1H-indol-4-yl]oxy]acetic acid], the “suppression of hPLA2-II-induced neuronal death (MTT reducing activity), co-treatment” value ([1]; 3 μM hPLA2-II, 48 well-cultured neuron, FIG. 4) was “suppressed neuronal death completely depending on its concentration”.

In the case of `CCc1c(C(=O)C(N)=O)c2c(OCC(=O)O)cccn2c1Cc1ccccc1-c1ccccc1` [Example 2, (8-(Carboxymethyloxy)-2-ethyl-3-(o-phenylbenzyl)indolizin-1-yl)glyoxylamide], the “time after hPLA2-II treatment within which post-treatment with compound suppressed neuronal death completely” value ([1]; 1 μM hPLA2-II, compound added at 10 μM final concentration at indicated time after hPLA2-II, FIG. 3) is reported as no more than 10 h.

In the case of `CCN(CC)CCCC(C)Nc1c2ccc(Cl)cc2nc2ccc(OC)cc12` (centres unmarked) [quinacrine], the infarct-size [2] is listed as “reduces infarct-size”.

B1: hPLA2-II: human PLA2-II, used to induce neuronal death in cultured cortical neurons (protein, UniProt P14555 21-144, looked up)
Phospholipase A2, membrane …: NLVNFHRMIKLTTGKEAALSYGFYGCHCGVGGRGSPKDATDRCCVTHDCCYKRLEKRGCGTKFLSYKFSNSGSRITCAKQDSCRSQLCECDKAAATCFARNKTTYNKKYQYYSNKHCRGSTPRC
In the case of B1, the “morphology of neurons (cell bodies, neurites) after hPLA2-II treatment” value ([3]; compared with untreated neurons) is reported as “shrank cell bodies and lost their neurites” and the “ultrastructural changes of neurons after hPLA2-II treatment” value ([3]; electron microscope, compared with untreated cells, FIG. 1B) is reported as “condensation and fragmentation of nuclear chromatin, lost of intracellular organelle other than mitochondria and blebbing of plasma membranes”.
